Experiment [1] concerns MON cells. The experiment is described as follows: Combination therapy viability assay, MON. Particulars: Homo sapiens, cytotoxic drug alone, 72 hours, read-out: IC50 of compound 2. The class given is cell-based.
In experiment [2] the test system is BT-16 cells. Kind of experiment: Combination therapy viability assay, BT-16. The format is cell-based. Particulars: Homo sapiens, cytotoxic drug alone, 72 hours, read-out: IC50 of compound 2.
For experiment [3], the system named is DAOY cells. Kind of experiment: Combination therapy viability assay, DAOY. Particulars: Homo sapiens, 72 h, read-out: IC50 of compound 2.

As for `COc1cccc2c1C(=O)c1c(O)c3c(c(O)c1C2=O)C[C@@](O)(C(=O)CO)C[C@@H]3O[C@H]1C[C@H](N)[C@H](O)[C@H](C)O1` [Doxorubicin, doxorubicin], the results for the IC50 in experiment [1], in experiment [2] and in experiment [3] were 0.134 µM, 1.43 µM and 0.263 µM, respectively.
Regarding `COc1cc([C@@H]2c3cc4c(cc3[C@@H](O[C@@H]3O[C@@H]5CO[C@@H](C)O[C@H]5[C@H](O)[C@H]3O)[C@H]3COC(=O)[C@H]23)OCO4)cc(OC)c1O` [Etoposide, etoposide], the values for the IC50 in experiment [1], in experiment [2] and in experiment [3] were 0.967 µM, 0.8 µM and 0.495 µM, respectively.

What is called IC50 is the concentration that inhibits the measured activity by half.
